From the supplement of paper PMC11451515

System: P12-Ichikawa
Assay: cell viability relative to DMSO control; higher = less cytotoxic
Conditions: 48 h
Outline: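 Viability, reported as a per-plate percentage of DMSO wells with cell-free wells as background, came from CellTiter-Glo One luminescence. Reading took place after 48 h at 37°C. Before that, NOMO1 or SEM (500 cells/well) or P12-Ichikawa (1000 cells/well) leukemia cells, adapted for at least four passages in each medium, were seeded in 1536-well plates (5 μl) and pin-dosed with library compounds in DMSO, 47 μM to 0.79 nM over 11 threefold points.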

[1] = HPLM + 10% dialyzed FBS, 0.000781 µM
[2] = HPLM + 10% dialyzed FBS, 0.00234 µM
[3] = HPLM + 10% dialyzed FBS, 0.00702 µM
[4] = HPLM + 10% dialyzed FBS, 0.0211 µM
[5] = HPLM + 10% dialyzed FBS, 0.0632 µM
[6] = HPLM + 10% dialyzed FBS, 0.19 µM
[7] = HPLM + 10% dialyzed FBS, 0.569 µM
[8] = HPLM + 10% dialyzed FBS, 1.71 µM
[9] = HPLM + 10% dialyzed FBS, 5.12 µM
[10] = HPLM + 10% dialyzed FBS, 15.4 µM
[11] = HPLM + 10% dialyzed FBS, 46.1 µM
[12] = RPMI 5 mM glucose + 10% FBS, 0.000781 µM
[13] = RPMI 5 mM glucose + 10% FBS, 0.00234 µM
[14] = RPMI 5 mM glucose + 10% FBS, 0.00702 µM
[15] = RPMI 5 mM glucose + 10% FBS, 0.0211 µM
[16] = RPMI 5 mM glucose + 10% FBS, 0.0632 µM
[17] = RPMI 5 mM glucose + 10% FBS, 0.19 µM
[18] = RPMI 5 mM glucose + 10% FBS, 0.569 µM
[19] = RPMI 5 mM glucose + 10% FBS, 1.71 µM
[20] = RPMI 5 mM glucose + 10% FBS, 5.12 µM
[21] = RPMI 5 mM glucose + 10% FBS, 15.4 µM
[22] = RPMI 5 mM glucose + 10% FBS, 46.1 µM
[23] = RPMI 5 mM glucose + 10% dialyzed FBS, 0.000781 µM
[24] = RPMI 5 mM glucose + 10% dialyzed FBS, 0.00234 µM
[25] = RPMI 5 mM glucose + 10% dialyzed FBS, 0.00702 µM
[26] = RPMI 5 mM glucose + 10% dialyzed FBS, 0.0211 µM
[27] = RPMI 5 mM glucose + 10% dialyzed FBS, 0.0632 µM
[28] = RPMI 5 mM glucose + 10% dialyzed FBS, 0.19 µM
[29] = RPMI 5 mM glucose + 10% dialyzed FBS, 0.569 µM
[30] = RPMI 5 mM glucose + 10% dialyzed FBS, 1.71 µM
[31] = RPMI 5 mM glucose + 10% dialyzed FBS, 5.12 µM
[32] = RPMI 5 mM glucose + 10% dialyzed FBS, 15.4 µM
[33] = RPMI 5 mM glucose + 10% dialyzed FBS, 46.1 µM

CC(C)(C)NCC(O)c1ccc(O)c(CO)c1 (stereo unspecified)
cell viability [1]: 117% | cell viability [2]: 115% | cell viability [3]: 114% | cell viability [4]: 105% | cell viability [5]: 119% | cell viability [6]: 121% | cell viability [7]: 110% | cell viability [8]: 97.8% | cell viability [9]: 90.5% | cell viability [10]: 86.5% | cell viability [11]: 80% | cell viability [12]: 101% | cell viability [13]: 116% | cell viability [14]: 121% | cell viability [15]: 114% | cell viability [16]: 111% | cell viability [17]: 113% | cell viability [18]: 103% | cell viability [19]: 103% | cell viability [20]: 84.4% | cell viability [21]: 71.4% | cell viability [22]: 68.3% | cell viability [23]: 94.9% | cell viability [24]: 108% | cell viability [25]: 109% | cell viability [26]: 106% | cell viability [27]: 105% | cell viability [28]: 109% | cell viability [29]: 102% | cell viability [30]: 110% | cell viability [31]: 80.8% | cell viability [32]: 73.3% | cell viability [33]: 68.4%

CC1(C)CCC(C)(C)c2cc(NC(=O)c3ccc(C(=O)O)cc3)ccc21
cell viability [1]: 73.7% | cell viability [2]: 116% | cell viability [3]: 101% | cell viability [4]: 102% | cell viability [5]: 107% | cell viability [6]: 106% | cell viability [7]: 105% | cell viability [8]: 104% | cell viability [9]: 106% | cell viability [10]: 101% | cell viability [11]: 96.4% | cell viability [12]: 102% | cell viability [13]: 103% | cell viability [14]: 93.9% | cell viability [15]: 96.2% | cell viability [16]: 103% | cell viability [17]: 97.8% | cell viability [18]: 104% | cell viability [19]: 109% | cell viability [20]: 101% | cell viability [21]: 98.9% | cell viability [22]: 88.5% | cell viability [23]: 96.2% | cell viability [24]: 104% | cell viability [25]: 98.4% | cell viability [26]: 108% | cell viability [27]: 110% | cell viability [28]: 105% | cell viability [29]: 116% | cell viability [30]: 108% | cell viability [31]: 107% | cell viability [32]: 102% | cell viability [33]: 79.6%

C[C@@H]1CC[C@@]2(CC[C@]3(C)\C(=C/C[C@@H]4[C@@]5(C)C[C@@H](O)[C@H](O)[C@@](C)(CO)[C@@H]5CC[C@@]34C)[C@@H]2[C@H]1C)C(O)=O
cell viability [1]: 109% | cell viability [2]: 113% | cell viability [3]: 108% | cell viability [4]: 122% | cell viability [5]: 121% | cell viability [6]: 120% | cell viability [7]: 116% | cell viability [8]: 116% | cell viability [9]: 122% | cell viability [10]: 121% | cell viability [11]: 112% | cell viability [12]: 116% | cell viability [13]: 123% | cell viability [14]: 113% | cell viability [15]: 116% | cell viability [16]: 119% | cell viability [17]: 121% | cell viability [18]: 126% | cell viability [19]: 131% | cell viability [20]: 123% | cell viability [21]: 119% | cell viability [22]: 110% | cell viability [23]: 109% | cell viability [24]: 113% | cell viability [25]: 114% | cell viability [26]: 109% | cell viability [27]: 121% | cell viability [28]: 118% | cell viability [29]: 128% | cell viability [30]: 121% | cell viability [31]: 125% | cell viability [32]: 110% | cell viability [33]: 123%

Cc1cccc(-c2[nH]c(C(C)(C)C)nc2-c2ccc3nccnc3c2)n1
cell viability [1]: 120% | cell viability [2]: 124% | cell viability [3]: 124% | cell viability [4]: 126% | cell viability [5]: 125% | cell viability [6]: 120% | cell viability [7]: 118% | cell viability [8]: 110% | cell viability [9]: 112% | cell viability [10]: 112% | cell viability [11]: 48% | cell viability [12]: 122% | cell viability [13]: 122% | cell viability [14]: 115% | cell viability [15]: 116% | cell viability [16]: 124% | cell viability [17]: 121% | cell viability [18]: 108% | cell viability [19]: 119% | cell viability [20]: 106% | cell viability [21]: 106% | cell viability [22]: 81.4%
